According to ChEMBL document CHEMBL1201862, “PubChem BioAssay data set” (2004):
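In this assay, cells in 96-well plates receive the compound at five concentrations for 48 hours. Endpoints are linearly interpolated between the surrounding concentrations. At the GI50, growth is halved.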 The source made the active and inactive calls. Cut-off read from the data, not from the text of the source: active = GI50 up to about 1.1 µM and inactive = higher.

Key:
Assay in all cases: NCI anticancer screen, dose series, 48 h
SK-MEL-5 = test system: SK-MEL-5
CCRF-CEM = test system: CCRF-CEM
OVCAR-3 = test system: OVCAR-3
M14 = test system: M14
NCI-H460 = test system: NCI-H460
NCI-H23 = test system: NCI-H23
LXFL 529 = test system: LXFL 529
KM12 = test system: KM12
CAKI-1 = test system: CAKI-1
SF-268 = test system: SF-268
ACHN = test system: ACHN
UO-31 = test system: UO-31
SNB-19 = test system: SNB-19
UACC-257 = test system: UACC-257
LOX IMVI = test system: LOX IMVI
786-0 = test system: 786-0
K562 = test system: K562
Malme-3M = test system: Malme-3M
EKVX = test system: EKVX
UACC-62 = test system: UACC-62
KM-20L2 = test system: KM-20L2
SNB-75 = test system: SNB-75
SNB-78 = test system: SNB-78
HOP-18 = test system: HOP-18
SF-295 = test system: SF-295
HCT-116 = test system: HCT-116
M19-MEL = test system: M19-MEL
XF498 = test system: XF498
DLD-1 = test system: DLD-1
MOLT-4 = test system: MOLT-4
SW-620 = test system: SW-620
NCI-H226 = test system: NCI-H226
A549 = test system: A549
U-251 = test system: U-251
SK-MEL-28 = test system: SK-MEL-28
RXF 393 = test system: RXF 393
OVCAR-8 = test system: OVCAR-8
DMS-273 = test system: DMS-273
RXF 631 = test system: RXF 631
HT-29 = test system: HT-29
COLO 205 = test system: COLO 205
SK-OV-3 = test system: SK-OV-3
A498 = test system: A498
HOP-92 = test system: HOP-92
SK-MEL-2 = test system: SK-MEL-2
HCT-15 = test system: HCT-15
HL-60 = test system: HL-60
OVCAR-5 = test system: OVCAR-5
SN12C = test system: SN12C
IGROV-1 = test system: IGROV-1
HCC 2998 = test system: HCC 2998
RPMI-8226 = test system: RPMI-8226
TK-10 = test system: TK-10
NCI-H522 = test system: NCI-H522
HOP-62 = test system: HOP-62
DMS-114 = test system: DMS-114
OVCAR-4 = test system: OVCAR-4
SF-539 = test system: SF-539

Compound: COc1ccc(C23C(=O)c4ccccc4N2O[C@H]2C(=O)N(c4ccccc4)C(=O)[C@H]23)cc1 (stereo partly drawn)
- GI50 (SK-MEL-5): > 100 µM (inactive)
- GI50 (CCRF-CEM): > 100 µM (inactive)
- GI50 (OVCAR-3): > 100 µM (inactive)
- GI50 (M14): > 100 µM (inactive)
- GI50 (NCI-H460): > 100 µM (inactive)
- GI50 (NCI-H23): > 100 µM (inactive)
- GI50 (LXFL 529): > 100 µM (inactive)
- GI50 (KM12): > 100 µM (inactive)
- GI50 (CAKI-1): > 100 µM (inactive)
- GI50 (SF-268): > 100 µM (inactive)
- GI50 (ACHN): > 100 µM (inactive)
- GI50 (UO-31): > 100 µM (inactive)
- GI50 (SNB-19): > 100 µM (inactive)
- GI50 (UACC-257): > 100 µM (inactive)
- GI50 (LOX IMVI): > 100 µM (inactive)
- GI50 (786-0): > 100 µM (inactive)
- GI50 (K562): > 100 µM (inactive)
- GI50 (Malme-3M): > 100 µM (inactive)
- GI50 (EKVX): > 100 µM (inactive)
- GI50 (UACC-62): > 100 µM (inactive)
- GI50 (KM-20L2): > 100 µM (inactive)
- GI50 (SNB-75): > 100 µM (inactive)
- GI50 (SNB-78): > 100 µM (inactive)
- GI50 (HOP-18): > 100 µM (inactive)
- GI50 (SF-295): > 100 µM (inactive)
- GI50 (HCT-116): > 100 µM (inactive)
- GI50 (M19-MEL): > 100 µM (inactive)
- GI50 (XF498): > 100 µM (inactive)
- GI50 (DLD-1): > 100 µM (inactive)
- GI50 (MOLT-4): > 100 µM (inactive)
- GI50 (SW-620): > 100 µM (inactive)
- GI50 (NCI-H226): > 100 µM (inactive)
- GI50 (A549): > 100 µM (inactive)
- GI50 (U-251): > 100 µM (inactive)
- GI50 (SK-MEL-28): > 100 µM (inactive)
- GI50 (RXF 393): > 100 µM (inactive)
- GI50 (OVCAR-8): > 100 µM (inactive)
- GI50 (DMS-273): > 100 µM (inactive)
- GI50 (RXF 631): > 100 µM (inactive)
- GI50 (HT-29): > 100 µM (inactive)
- GI50 (COLO 205): > 100 µM (inactive)
- GI50 (SK-OV-3): > 100 µM (inactive)
- GI50 (A498): > 100 µM (inactive)
- GI50 (HOP-92): > 100 µM (inactive)
- GI50 (SK-MEL-2): > 100 µM (inactive)
- GI50 (HCT-15): > 100 µM
- GI50 (HL-60): > 100 µM (inactive)
- GI50 (OVCAR-5): > 100 µM (inactive)
- GI50 (SN12C): > 100 µM (inactive)
- GI50 (IGROV-1): > 100 µM (inactive)
- GI50 (HCC 2998): > 100 µM (inactive)
- GI50 (RPMI-8226): > 100 µM (inactive)
- GI50 (TK-10): > 100 µM (inactive)
- GI50 (NCI-H522): 14 µM (inactive)
- GI50 (HOP-62): > 100 µM (inactive)
- GI50 (DMS-114): > 100 µM (inactive)
- GI50 (OVCAR-4): > 100 µM (inactive)
- GI50 (SF-539): > 100 µM (inactive)

Compound: COc1ccc2nc(NC(=O)C(=O)C(C#N)c3ccc(Cl)c(Cl)c3)sc2c1 (stereo not drawn)
- GI50 (SK-MEL-5): > 100 µM (inactive)
- GI50 (CCRF-CEM): > 100 µM (inactive)
- GI50 (OVCAR-3): > 100 µM (inactive)
- GI50 (M14): > 100 µM (inactive)
- GI50 (NCI-H460): 84.7 µM (inactive)
- GI50 (NCI-H23): 75.9 µM (inactive)
- GI50 (LXFL 529): > 100 µM (inactive)
- GI50 (KM12): > 100 µM (inactive)
- GI50 (CAKI-1): > 100 µM (inactive)
- GI50 (SF-268): 79.8 µM (inactive)
- GI50 (ACHN): > 100 µM (inactive)
- GI50 (UO-31): > 100 µM (inactive)
- GI50 (SNB-19): > 100 µM (inactive)
- GI50 (UACC-257): > 100 µM (inactive)
- GI50 (LOX IMVI): > 100 µM (inactive)
- GI50 (786-0): > 100 µM (inactive)
- GI50 (K562): > 100 µM (inactive)
- GI50 (Malme-3M): > 100 µM (inactive)
- GI50 (EKVX): 88.9 µM (inactive)
- GI50 (UACC-62): > 100 µM (inactive)
- GI50 (KM-20L2): > 100 µM (inactive)
- GI50 (SNB-75): 45.3 µM (inactive)
- GI50 (SNB-78): > 100 µM (inactive)
- GI50 (SF-295): > 100 µM (inactive)
- GI50 (HCT-116): 62.4 µM (inactive)
- GI50 (M19-MEL): > 100 µM (inactive)
- GI50 (XF498): > 100 µM (inactive)
- GI50 (DLD-1): > 100 µM (inactive)
- GI50 (SW-620): > 100 µM (inactive)
- GI50 (NCI-H226): > 100 µM (inactive)
- GI50 (A549): > 100 µM (inactive)
- GI50 (U-251): > 100 µM (inactive)
- GI50 (SK-MEL-28): > 100 µM (inactive)
- GI50 (RXF 393): 52.2 µM (inactive)
- GI50 (OVCAR-8): > 100 µM (inactive)
- GI50 (DMS-273): > 100 µM (inactive)
- GI50 (RXF 631): > 100 µM (inactive)
- GI50 (HT-29): > 100 µM (inactive)
- GI50 (COLO 205): > 100 µM (inactive)
- GI50 (SK-OV-3): > 100 µM (inactive)
- GI50 (A498): > 100 µM (inactive)
- GI50 (HOP-92): 33.9 µM (inactive)
- GI50 (SK-MEL-2): > 100 µM (inactive)
- GI50 (HCT-15): > 100 µM
- GI50 (HL-60): > 100 µM (inactive)
- GI50 (OVCAR-5): > 100 µM (inactive)
- GI50 (SN12C): > 100 µM (inactive)
- GI50 (IGROV-1): > 100 µM (inactive)
- GI50 (RPMI-8226): > 100 µM (inactive)
- GI50 (TK-10): > 100 µM (inactive)
- GI50 (NCI-H522): 36.9 µM (inactive)
- GI50 (HOP-62): > 100 µM (inactive)
- GI50 (DMS-114): 78.9 µM (inactive)
- GI50 (OVCAR-4): > 100 µM (inactive)
- GI50 (SF-539): 63.4 µM (inactive)
